The source of these data is patent publication US20250268877A1 (BIOGEN MA INC., priority 2020, published 2025).

≈ marks a conversion by molar mass, not a printed value. Where two headings read alike, the source gives them in different places.

For one data set, the target named is IRAK4 (Homo sapiens (Human), UniProt Q9NWZ3). Put plainly: IRAK4 2-hour 1 mM ATP Biochemical Assay (MesoScale Detection format).
Another data set concerns the target MDR1 (Homo sapiens (Human), UniProt P08183). Put plainly: MDR1-MDCK assay (apparent permeability, efflux ratio). The format is in vitro ADME. Particulars: human, MDCK-MDR1, 1 μM.
A short description of data set [1]: Kinetic solubility assay (CLND), potassium phosphate buffer pH 6.8. The note with it: potassium phosphate buffer, kinetic from dmso stock, pH 6.8, 2% DMSO, 24 hours at ambient temperature; for solubility kinetic at 24 h: aqueous buffer, comparator table; for solubility at 24 h: pH 6.8, aqueous buffer. The format is physicochemical.
From the text: • Inject filtrates into the nitrogen detector for quantification on Analiza's Automated Discovery Workstation (ADW). • Solubility results generated in μg/mL
A short description of data set [2]: Kpuu assay (in vivo brain-to-plasma partition, unbound). Particulars: intravenous infusion 4 to 24 h, unbound drug partition coefficient; for Kp: brain (unbound) versus plasma (unbound), read-out: Brain Kpu,u.
Method: For the brain-to-plasma partition coefficient (Kp) evaluation, a dosing solution was intravenously infused into animals at a constant flow rate for 4 to 24 h. Blood samples were serially collected during infusion, and CSF and brain samples were harvested at the end of infusion.
Tissue samples were typically homogenized in phosphate buffer saline (PBS) using a bead ruptor.
CSF samples were typically diluted with 8% BSA in PBS to prevent from non-specific binding. Artificial CSF (aCSF) is used as the surrogate matrix.
Calibration curves were prepared by spiking the analyte(s) into blank matrices, which were processed together with plasma, tissue homogenate and/or CSF samples by protein precipitation using a proper organic solvent (e.g. acetonitrile and methanol) containing generic analogue internal standards (e.g. verapamil, chrysin and glyburide). Matrix matching was used when analyzing multiple matrices in the same run. Samples above the upper limit of quantitation (ULOQ) needed to be diluted into the calibration range using either a pre-extraction or post-extraction dilution approach.
Processed samples were analyzed by LC-MS/MS using a proper method performing within the acceptable sensitivity, selectivity, precision and accuracy. For an analytical run to be accepted, over 75% of the calibration standards in the dual calibration curves needed to be within 20% of the nominal concentrations.
Brain concentrations were compared against plasma concentrations at the corresponding timepoint for the calculation of partition coefficient (Kp).
Unbound drug partition coefficient (Kpuu), defined as the ratio of unbound drug partition across the blood-brain barrier, was calculated using the equation below:
[formula] • Cb: measured total drug concentration in brain • Fub: unbound drug fraction in brain • Cp: measured total drug concentration in plasma • Fup: unbound drug fraction in plasma Compound- or study-specific PK analysis that deviates from the typical procedure might be used when necessary, which will be documented in a study specific protocol included in the data upload.
Mix thoroughly. • This spiked plasma solution is shown in FIG. 1. • 3) Prepare a chilled ‘crash’ solution of internal standard in a solvent solution. • Pipette 200 μL of 25 ng/mL solution of internal standard, CPDPX (8-Cyclopentyl-1,3-dipropylxanthine, Sigma-Aldrich, C101) in 1:1 acetonitrile/methanol solvent solution into a 1 mL 96-well plate. • Chill on ice or refrigerate at 4° C. • This solution becomes the ‘Crash’ plate in FIG. 1. • 4) From remaining spiked plasma, remove 50 μL (T=0 h) of each plasma sample and place into a crash plate which contains 200 μL. To matrix match, add 50 μL of blank buffer to the crashed sample (similar to PPB samples). […] Mix crash plate thoroughly. • From remaining spiked plasma, remove 50 μL (T=4 h) of each plasma sample and place into a crash plate. To matrix match, add 50 μL of blank buffer to the crashed sample (similar to the protein binding samples). • Centrifuge crash plate at 3900 rpm for 10 minutes at 4° C.
% Free=(PAR of buffer side/PAR of plasma side)*100 • PAR—Peak area ratio (PAR)
Fu=% Free/100 • Fu=fraction unbound
The target in data set [3] is catalytical domain of human IRAK4 (a.a. 163-460) (Homo sapiens (Human), UniProt Q9NWZ3). The data set can be described thus: IRAK4 SPR binding assay. The note with it: single-cycle, 1:1 interaction model. On the technique in general: In SPR one partner is held on a chip, and binding of the other changes the refractive index at the surface.
Sequence of catalytical domain of human IRAK4 (a.a. 163-460) (Q9NWZ3 163-460): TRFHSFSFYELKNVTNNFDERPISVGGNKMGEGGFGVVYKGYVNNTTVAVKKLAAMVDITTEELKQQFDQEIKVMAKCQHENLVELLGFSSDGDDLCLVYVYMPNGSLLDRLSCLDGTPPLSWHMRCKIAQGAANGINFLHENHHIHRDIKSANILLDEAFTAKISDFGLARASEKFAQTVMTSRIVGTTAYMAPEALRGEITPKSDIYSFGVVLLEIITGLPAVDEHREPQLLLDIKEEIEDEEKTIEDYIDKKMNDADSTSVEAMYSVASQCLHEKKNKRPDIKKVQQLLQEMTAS
Method: IRAK4 SPR. IRAK4 SPR was set up on Biacore T200 or S200 by using Biotin CAPture kit (Cytiva). In brief, purified IRAK4 in capture buffer (25 mM Hepes, 150 mM NaCl, 1 mM TCEP, pH7.4) was captured onto a CAP sensor surface via the interaction of biotin to streptavidin Typical capture level is between 1,000 RU to 2,000 RU, Compound binding kinetics to IRAK4 was examined with running buffer (25 mM Hepes, 150 mM NaCl, 1 mM TCEP, 2% DMSO, pH7.4). Serially diluted compounds were injected at 50 μl/min in single-cycle for 60-s association of each injection followed by 360-s dissociation at the end. The data was fitted to global 1:1 interaction model.
The mark [4] stands for this setting: comparator table, read-out: MDR1-MDCK Efflux Ratio.
[5] abbreviates: 100 pM IRAK4, read-out: IRAK4 IC50.
The mark [6] stands for this setting: read-out: MDR1-MDCK_Efflux Ratio.

Sequence of IRAK4 (Q9NWZ3 whole entry): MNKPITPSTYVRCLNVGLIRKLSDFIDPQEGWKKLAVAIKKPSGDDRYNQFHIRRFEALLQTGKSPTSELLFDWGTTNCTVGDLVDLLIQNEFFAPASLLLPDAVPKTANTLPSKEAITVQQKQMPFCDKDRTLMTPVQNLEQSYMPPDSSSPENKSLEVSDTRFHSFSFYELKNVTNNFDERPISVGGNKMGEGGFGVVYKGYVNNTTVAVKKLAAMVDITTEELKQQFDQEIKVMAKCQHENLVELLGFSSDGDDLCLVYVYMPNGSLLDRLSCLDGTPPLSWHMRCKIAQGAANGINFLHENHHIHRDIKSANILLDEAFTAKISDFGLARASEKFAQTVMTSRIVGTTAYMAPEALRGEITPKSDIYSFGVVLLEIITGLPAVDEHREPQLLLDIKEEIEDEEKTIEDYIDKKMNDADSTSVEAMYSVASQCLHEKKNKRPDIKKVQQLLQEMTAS
Sequence of MDR1 (P08183 whole entry): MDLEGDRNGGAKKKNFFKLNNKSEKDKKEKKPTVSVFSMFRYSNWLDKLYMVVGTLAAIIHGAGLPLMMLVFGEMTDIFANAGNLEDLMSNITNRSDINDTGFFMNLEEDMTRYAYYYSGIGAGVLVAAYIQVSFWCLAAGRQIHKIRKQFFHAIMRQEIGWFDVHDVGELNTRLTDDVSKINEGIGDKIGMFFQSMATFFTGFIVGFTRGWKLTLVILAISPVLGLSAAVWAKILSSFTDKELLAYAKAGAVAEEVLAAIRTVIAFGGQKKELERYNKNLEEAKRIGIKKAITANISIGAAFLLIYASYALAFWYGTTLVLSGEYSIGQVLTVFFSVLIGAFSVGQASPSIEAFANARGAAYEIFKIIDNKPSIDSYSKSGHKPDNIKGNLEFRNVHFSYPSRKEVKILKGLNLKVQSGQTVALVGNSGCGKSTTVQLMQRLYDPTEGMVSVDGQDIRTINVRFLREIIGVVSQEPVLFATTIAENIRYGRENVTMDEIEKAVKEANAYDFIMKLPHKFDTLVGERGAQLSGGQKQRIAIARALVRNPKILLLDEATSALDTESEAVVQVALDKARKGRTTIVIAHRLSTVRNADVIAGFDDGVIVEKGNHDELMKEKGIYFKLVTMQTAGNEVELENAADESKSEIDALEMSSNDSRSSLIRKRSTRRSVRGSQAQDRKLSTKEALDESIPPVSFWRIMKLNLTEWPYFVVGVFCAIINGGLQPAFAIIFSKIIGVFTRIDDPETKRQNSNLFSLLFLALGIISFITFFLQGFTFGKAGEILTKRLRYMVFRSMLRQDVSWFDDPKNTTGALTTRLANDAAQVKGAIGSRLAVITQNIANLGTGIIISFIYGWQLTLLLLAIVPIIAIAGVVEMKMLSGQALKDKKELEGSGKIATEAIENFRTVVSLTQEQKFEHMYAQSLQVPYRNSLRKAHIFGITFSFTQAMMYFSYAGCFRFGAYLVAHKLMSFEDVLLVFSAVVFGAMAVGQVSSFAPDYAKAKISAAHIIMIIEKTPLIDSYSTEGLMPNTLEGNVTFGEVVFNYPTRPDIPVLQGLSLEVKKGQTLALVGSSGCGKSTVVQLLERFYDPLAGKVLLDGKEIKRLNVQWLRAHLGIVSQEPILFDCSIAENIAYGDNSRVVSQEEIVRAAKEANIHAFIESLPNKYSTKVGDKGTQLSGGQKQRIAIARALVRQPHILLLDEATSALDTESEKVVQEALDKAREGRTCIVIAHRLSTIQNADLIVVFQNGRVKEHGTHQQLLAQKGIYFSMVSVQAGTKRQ

Turning to `CC(C)Oc1nc2nn([C@]34CC[C@](C)(C3)OC4)cc2cc1C(=O)Nc1cccn(C)c1=O` (single isomer, unassigned) [Comparator 1C, reference compound], at IRAK4 (100 pM IRAK4, comparator table, read-out: IRAK4 Biochemical IC50), the IC50 is 0.4 nM. For the same compound, the efflux ratio at 120 min, 1 μM on MDR1 (setting [4]) was found to be 1.2. The solubility (kinetic) at 24 h in data set [1] was 44.3 µg/mL (≈ 101 µM). Besides, the Kp in data set [2] (comparator table) is 1.3. For the same compound, in data set [3] (comparator table), the “IRAK4 SPR binding Half Life” value stood at 27.1 min.

As to `C[C@]12CC[C@](n3cc4cc(C(=O)Nc5cccn(C6CC6)c5=O)c(OC5CCC5)cc4n3)(CO1)C2` (single isomer, unassigned) [Example 41], the IC50 on IRAK4 (setting [5]) was 0.2 nM. Moreover, the efflux ratio at 120 min, 1 μM at MDR1 (setting [6]) worked out at 1.71. Further, the solubility at 24 h in data set [1] stood at 19.7 µg/mL (≈ 41.5 µM). Also, in data set [2], the “Brain Kpu,u” value was found to be 0.9. The “IRAK4 SPR binding Half Life” value in data set [3] is given as 31.6 min.

In the case of `CC(C)Oc1nc2nn([C@@]34CC[C@@](C)(C3)OC4)cc2cc1C(=O)Nc1cccn(C2CC2)c1=O` (single isomer, unassigned) [Example 47], on IRAK4 (setting [5]), the IC50 amounted to 0.2 nM. The efflux ratio at 120 min, 1 μM at MDR1 (setting [6]) was 2.04. Besides, the solubility at 24 h in data set [1] is 1.09 µg/mL (≈ 2.35 µM). Also, the Kp in data set [2] was found to be 1.6. In addition, the “IRAK4 SPR binding Half Life” value in data set [3] is recorded as 54 min.

Consider `CC(C)Oc1nc2nn([C@]34CC[C@](C)(C3)OC4)cc2cc1C(=O)Nc1cccn(C2CC2)c1=O` (single isomer, unassigned) [Example 48], for which, at IRAK4 (setting [5]), the IC50 worked out at 0.2 nM. In addition, the efflux ratio at 120 min, 1 μM on MDR1 (setting [6]) is 1.73. This compound yielded a solubility at 24 h in data set [1] of 1.48 µg/mL (≈ 3.19 µM). The “IRAK4 SPR binding Half Life” value in data set [3] amounted to 58 min.

Regarding `CC(C)Oc1cc2nn([C@]34CC[C@](C)(C3)OC4)cc2cc1C(=O)Nc1cccn([C@H]2C[C@H]2F)c1=O` (single isomer, unassigned) [Example 51], the IC50 at IRAK4 (setting [5]) came out at 0.1 nM. Besides, the efflux ratio at 120 min, 1 μM on MDR1 (setting [6]) came out at 3.47. This compound also returned a solubility at 24 h in data set [1] of 42.3 µg/mL (≈ 88 µM). Besides, in data set [2], the Kp turned out to be 0.4. Further, the “IRAK4 SPR binding Half Life” value in data set [3] worked out at 139 min.

Take `COCC12CC(n3cc4cc(C(=O)Nc5cccn([C@H]6C[C@@H]6F)c5=O)c(OC(C)C)nc4n3)(CO1)C2` (single isomer, unassigned) [Example 64]: on IRAK4 (setting [5]), the IC50 was 0.4 nM. On MDR1 (setting [6]), the efflux ratio at 120 min, 1 μM was 4.35. In data set [1], this compound gave a solubility at 24 h of 58.9 µg/mL (≈ 118 µM). For the same compound, the “IRAK4 SPR binding Half Life” value in data set [3] amounted to 47.2 min.

`COCC12CC(n3cc4cc(C(=O)Nc5cccn([C@H]6C[C@H]6F)c5=O)c(OC5CC5)nc4n3)(CO1)C2` (single isomer, unassigned) [Example 86]: on IRAK4 (setting [5]), the IC50 was 0.2 nM. Further, the efflux ratio at 120 min, 1 μM on MDR1 (setting [6]) was found to be 18.7. This compound also returned a solubility at 24 h in data set [1] of 13.9 µg/mL (≈ 28.1 µM). In addition, the “IRAK4 SPR binding Half Life” value in data set [3] came out at 74 min.

As for `CC(C)Oc1cc2nn(C34COC(C)(C3)C4)cc2cc1C(=O)Nc1cccn(C)c1=O` [Comparator 1A, 6-isopropoxy-N-(1-methyl-2-oxo-1,2-dihydropyridin-3-yl)-2-(1-methyl-2-oxabicyclo[2.1.1]hexan-4-yl)-2H-indazole-5-carboxamide, reference compound], the efflux ratio at 120 min, 1 μM at MDR1 (setting [4]) was determined as 1.2. This compound also gave a solubility (kinetic) at 24 h in data set [1] of 60 µg/mL (≈ 142 µM). For the same compound, the Kp in data set [2] (comparator table) came out at 1. For the same compound, the “IRAK4 SPR binding Half Life” value in data set [3] (comparator table) is 9.0 min.

For `CC(C)Oc1cc2nn([C@@]34CC[C@@](C)(C3)OC4)cc2cc1C(=O)Nc1cccn(C2CC2)c1=O` [Example 2, N-(1-cyclopropyl-2-oxo-1,2-dihydropyridin-3-yl)-6-isopropoxy-2-((1S,4S)-1-methyl-2-oxabicyclo[2.2.1]heptan-4-yl)-2H-indazole-5-carboxamide], on IRAK4 (setting [5]), the IC50 came to 0.4 nM. At MDR1 (setting [6]), the efflux ratio at 120 min, 1 μM came to 1.58. The solubility at 24 h in data set [1] came to 51.7 µg/mL (≈ 112 µM). In data set [2], the Kp is 0.9. In addition, in data set [3], the “IRAK4 SPR binding Half Life” value was 52.85 min.

On to `COCC12CC(n3cc4cc(C(=O)Nc5cccn(C6CC6)c5=O)c(OC(C)C)cc4n3)(CO1)C2` [Example 12, N-(1-cyclopropyl-2-oxo-1,2-dihydropyridin-3-yl)-6-isopropoxy-2-(1-(methoxymethyl)-2-oxabicyclo[2.1.1]hexan-4-yl)-2H-indazole-5-carboxamide], for which the IC50 at IRAK4 (setting [5]) turned out to be 0.5 nM. Further, on MDR1 (setting [6]), the efflux ratio at 120 min, 1 μM worked out at 2.82. Further, the solubility at 24 h in data set [1] was 67.7 µg/mL (≈ 141 µM). For the same compound, the Kp in data set [2] worked out at 0.7.

For `CC(C)Oc1nc2nn([C@@H]3CCCOC3)cc2cc1C(=O)Nc1cccn(C2CC2)c1=O` [Example 17, (R)—N-(1-cyclopropyl-2-oxo-1,2-dihydropyridin-3-yl)-6-isopropoxy-2-(tetrahydro-2H-pyran-3-yl)-2H-pyrazolo[3,4-b]pyridine-5-carboxamide], the IC50 on IRAK4 (setting [5]) worked out at 0.2 nM. Further, the efflux ratio at 120 min, 1 μM at MDR1 (setting [6]) worked out at 2.6. In data set [1], this compound returned a solubility at 24 h of 50.4 µg/mL (≈ 115 µM). In addition, in data set [2], the Kp came to 0.5.

As for `CC12CC(n3cc4cc(C(=O)Nc5cccn([C@H]6C[C@H]6F)c5=O)c(OC5CCC5)nc4n3)(CO1)C2` [Example 27, 6-cyclobutoxy-N-(1-((1S,2R)-2-fluorocyclopropyl)-2-oxo-1,2-dihydropyridin-3-yl)-2-(1-methyl-2-oxabicyclo[2.1.1]hexan-4-yl)-2H-pyrazolo[3,4-b]pyridine-5-carboxamide], the 50% inhibitory concentration (IC50) at IRAK4 (setting [5]) came out at 0.1 nM. Further, on MDR1 (setting [6]), the efflux ratio at 120 min, 1 μM worked out at 5.38. Moreover, the solubility at 24 h in data set [1] was determined as 1.2 µg/mL (≈ 2.5 µM). For the same compound, the Kp in data set [2] was found to be 0.7.

Turning to `COCC12CC(n3cc4cc(C(=O)Nc5cccn([C@H]6C[C@H]6F)c5=O)c(OC(C)C)nc4n3)(CO1)C2` [Example 49, N-(1-((1S,2R)-2-fluorocyclopropyl)-2-oxo-1,2-dihydropyridin-3-yl)-6-isopropoxy-2-(1-(methoxymethyl)-2-oxabicyclo[2.1.1]hexan-4-yl)-2H-pyrazolo[3,4-b]pyridine-5-carboxamide], the IC50 at IRAK4 (setting [5]) came to 0.1 nM. The efflux ratio at 120 min, 1 μM on MDR1 (setting [6]) was found to be 9.67. The solubility at 24 h in data set [1] came out at 62.3 µg/mL (≈ 125 µM). Also, the Kp in data set [2] turned out to be 0.4.

As to `CC(C)Oc1cc2nn(C34COC(C3)C4)cc2cc1C(=O)Nc1cccn([C@H]2C[C@H]2F)c1=O` [Example 68, 2-(2-oxabicyclo[2.1.1]hexan-4-yl)-N-(1-((1S,2R)-2-fluorocyclopropyl)-2-oxo-1,2-dihydropyridin-3-yl)-6-isopropoxy-2H-indazole-5-carboxamide], at IRAK4 (setting [5]), the IC50 turned out to be 0.2 nM. Also, on MDR1 (setting [6]), the efflux ratio at 120 min, 1 μM amounted to 8.61. For the same compound, the solubility at 24 h in data set [1] turned out to be 45.3 µg/mL (≈ 100 µM). Besides, in data set [2], the Kp is 0.4.

`COCC12CC(n3cc4cc(C(=O)Nc5cccn([C@H]6C[C@H]6C)c5=O)c(OC(C)C)nc4n3)(CO1)C2` [Example 77, 6-isopropoxy-2-(1-(methoxymethyl)-2-oxabicyclo[2.1.1]hexan-4-yl)-N-(1-((1S,2R)-2-methylcyclopropyl)-2-oxo-1,2-dihydropyridin-3-yl)-2H-pyrazolo[3,4-b]pyridine-5-carboxamide]: the half-maximal inhibitory concentration (IC50) on IRAK4 (setting [5]) came to 0.4 nM. Further, the efflux ratio at 120 min, 1 μM at MDR1 (setting [6]) turned out to be 2.09. Further, the solubility at 24 h in data set [1] turned out to be 51 µg/mL (≈ 103 µM). Also, the Kp in data set [2] amounted to 0.9.

Regarding `CC(C)Oc1nc2nn(C34COC(C3)C4)cc2cc1C(=O)Nc1cccn([C@H]2C[C@H]2C)c1=O` [Example 80, 2-(2-oxabicyclo[2.1.1]hexan-4-yl)-6-isopropoxy-N-(1-((1S,2R)-2-methylcyclopropyl)-2-oxo-1,2-dihydropyridin-3-yl)-2H-pyrazolo[3,4-b]pyridine-5-carboxamide], at IRAK4 (setting [5]), the IC50 came to 0.5 nM. Moreover, the efflux ratio at 120 min, 1 μM on MDR1 (setting [6]) came to 4.42. The compound also returned a solubility at 24 h in data set [1] of 32.4 µg/mL (≈ 72.1 µM). Also, the Kp in data set [2] stood at 1.

As a reminder, the IC50 is the concentration needed to halve the response being measured. In general, solubility (kinetic) refers to solubility judged after dilution from a stock solution rather than from solid. Broadly, the solubility is the dissolved amount per volume that the medium holds. Lower therefore signals a poorly soluble substance.
